Laboratory results reported in patent US8178506B2, “Oligomeric compounds and compositions for use in modulation of small non-coding RNAs” (Regulus Therapeutics Inc., priority 2003, dated 2012).

Experiments:
Assay type in all cases: cell-based, human
Details in all cases: differentiating adipocytes transfected with oligomeric compound; Table 75
HSL = HSL mRNA expression in adipocytes (real-time PCR)
Glut4 = Glut4 mRNA expression in adipocytes (real-time PCR)
aP2 = aP2 mRNA expression in adipocytes (real-time PCR)
PPARγ = PPARγ mRNA expression in adipocytes (real-time PCR)
adipocytes = assay: Triglyceride accumulation assay in adipocytes

| Substance | HSL mRNA (HSL) | GLUT4 mRNA (Glut4) | aP2 mRNA (aP2) | PPAR gamma mRNA (PPARγ) | TG (triglyceride accumulation) (adipocytes) |
| --- | --- | --- | --- | --- | --- |
| 344276 (antisense CAGGCAUAGGAUGACAAAGGGAA; all 2'-MOE, all phosphorothioate, methylation of C and T or U not given here) [compound 344276] | 68 percentage of untreated control (UTC) | 49 percentage of untreated control (UTC) | 72 percentage of untreated control (UTC) | 72 percentage of untreated control (UTC) | 66 percentage of untreated control (UTC) |
| 344277 (antisense AAUACAUACUUCUUUACAUUCCA; all 2'-MOE, all phosphorothioate, methylation of C and T or U not given here) [compound 344277] | 57 percentage of untreated control (UTC) | 45 percentage of untreated control (UTC) | 61 percentage of untreated control (UTC) | 68 percentage of untreated control (UTC) | 75 percentage of untreated control (UTC) |
| 344338 (antisense AUGCCCUUUUAACAUUGCACUG; all 2'-MOE, all phosphorothioate, methylation of C and T or U not given here) [compound 344338] | 89 percentage of untreated control (UTC) | 66 percentage of untreated control (UTC) | 86 percentage of untreated control (UTC) | 91 percentage of untreated control (UTC) | 103 percentage of untreated control (UTC) |
| 344340 (UGUCCGUGGUUCUACCCUGUGGUA; all 2'-MOE, all phosphorothioate, methylation of C and T or U not given here) [compound 344340] | 47 percentage of untreated control (UTC) | 16 percentage of untreated control (UTC) | 82 percentage of untreated control (UTC) | 67 percentage of untreated control (UTC) | 60 percentage of untreated control (UTC) |
| 344341 (CACAUGGUUAGAUCAAGCACAA; anti-miR; all 2'-MOE, all phosphorothioate, methylation of C and T or U not given here) [compound 344341] | 33 percentage of untreated control (UTC) | 14 percentage of untreated control (UTC) | 42 percentage of untreated control (UTC) | 49 percentage of untreated control (UTC) | 50 percentage of untreated control (UTC) |
| 344342 (AUGCUUUUUGGGGUAAGGGCUU; anti-miR; all 2'-MOE, all phosphorothioate, methylation of C and T or U not given here) [compound 344342] | 87 percentage of untreated control (UTC) | 71 percentage of untreated control (UTC) | 88 percentage of untreated control (UTC) | 83 percentage of untreated control (UTC) | 88 percentage of untreated control (UTC) |
| 344343 (AUGCCCUUUCAUCAUUGCACUG; anti-miR; all 2'-MOE, all phosphorothioate, methylation of C and T or U not given here) [compound 344343] | 22 percentage of untreated control (UTC) | 4 percentage of untreated control (UTC) | 25 percentage of untreated control (UTC) | 30 percentage of untreated control (UTC) | 32 percentage of untreated control (UTC) |
| 344611 (ACAUUUUUCGUUAUUGCUCUUGA; anti-miR; all 2'-MOE, all phosphorothioate, methylation of C and T or U not given here) [compound 344611] | 31 percentage of untreated control (UTC) | 3 percentage of untreated control (UTC) | 34 percentage of untreated control (UTC) | 34 percentage of untreated control (UTC) | 43 percentage of untreated control (UTC) |
| 344612 (ACGGAAGGGCAGAGAGGGCCAG; anti-miR; all 2'-MOE, all phosphorothioate, methylation of C not given here) [compound 344612] | 59 percentage of untreated control (UTC) | 40 percentage of untreated control (UTC) | 72 percentage of untreated control (UTC) | 62 percentage of untreated control (UTC) | 69 percentage of untreated control (UTC) |
| 344613 (ACACCAAUGCCCUAGGGGAUGCG; anti-miR; all 2'-MOE, all phosphorothioate, methylation of C and T or U not given here) [compound 344613] | 46 percentage of untreated control (UTC) | 38 percentage of untreated control (UTC) | 55 percentage of untreated control (UTC) | 57 percentage of untreated control (UTC) | 47 percentage of untreated control (UTC) |
| 344614 (CCAGCAGCACCUGGGGCAGU; all 2'-MOE, all phosphorothioate, methylation of C and T or U not given here) [compound 344614] | 71 percentage of untreated control (UTC) | 61 percentage of untreated control (UTC) | 78 percentage of untreated control (UTC) | 86 percentage of untreated control (UTC) | 89 percentage of untreated control (UTC) |
| 344615 (UCAACAAAAUCACUGAUGCUGGA; anti-miR; all 2'-MOE, all phosphorothioate, methylation of C and T or U not given here) [compound 344615] | 154 percentage of untreated control (UTC) | 145 percentage of untreated control (UTC) | 166 percentage of untreated control (UTC) | 144 percentage of untreated control (UTC) | 149 percentage of untreated control (UTC) |
| 344616 (AGAGGUCGACCGUGUAAUGUGC; anti-miR; all 2'-MOE, all phosphorothioate, methylation of C and T or U not given here) [compound 344616] | 23 percentage of untreated control (UTC) | 2 percentage of untreated control (UTC) | 26 percentage of untreated control (UTC) | 36 percentage of untreated control (UTC) | 32 percentage of untreated control (UTC) |
| 344617 (GACGGGUGCGAUUUCUGUGUGAGA; all 2'-MOE, all phosphorothioate, methylation of C and T or U not given here) [compound 344617] | 55 percentage of untreated control (UTC) | 42 percentage of untreated control (UTC) | 59 percentage of untreated control (UTC) | 72 percentage of untreated control (UTC) | 52 percentage of untreated control (UTC) |
| 346685 (GGCGGAACUUAGCCACUGUGAA; all 2'-MOE, all phosphorothioate, methylation of C and T or U not given here) [compound 346685] | 172 percentage of untreated control (UTC) | 233 percentage of untreated control (UTC) | 181 percentage of untreated control (UTC) | 138 percentage of untreated control (UTC) | 164 percentage of untreated control (UTC) |
| 346686 (CUUCAGUUAUCACAGUACUGUA; all 2'-MOE, all phosphorothioate, methylation of C and T or U not given here) [compound 346686] | 80 percentage of untreated control (UTC) | 73 percentage of untreated control (UTC) | 83 percentage of untreated control (UTC) | 83 percentage of untreated control (UTC) | 73 percentage of untreated control (UTC) |
| 346687 (AGCAAGCCCAGACCGCAAAAAG; all 2'-MOE, all phosphorothioate, methylation of C not given here) [compound 346687] | 53 percentage of untreated control (UTC) | 35 percentage of untreated control (UTC) | 56 percentage of untreated control (UTC) | 60 percentage of untreated control (UTC) | 55 percentage of untreated control (UTC) |
| 346688 (UAGUUGGCAAGUCUAGAACCA; all 2'-MOE, all phosphorothioate, methylation of C and T or U not given here) [compound 346688] | 39 percentage of untreated control (UTC) | 12 percentage of untreated control (UTC) | 48 percentage of untreated control (UTC) | 55 percentage of untreated control (UTC) | 33 percentage of untreated control (UTC) |
| 346689 (CAUCAUUACCAGGCAGUAUUAGAG; all 2'-MOE, all phosphorothioate, methylation of C and T or U not given here) [compound 346689] | 63 percentage of untreated control (UTC) | 45 percentage of untreated control (UTC) | 79 percentage of untreated control (UTC) | 64 percentage of untreated control (UTC) | 59 percentage of untreated control (UTC) |
